Measured values reported in patent publication US8269015B2, “4-azetidinyl-1-heteroaryl-cyclohexane antagonists of CCR2” (Janssen Pharmaceutica N.V., priority 2009, dated 2012).

Target: T1, CCR2 (Homo sapiens, UniProt P41597)
T1 construct: host or cells: THP-1 (human monocytic cell line)
T1 sequence (P41597 1-360 isoform P41597-2): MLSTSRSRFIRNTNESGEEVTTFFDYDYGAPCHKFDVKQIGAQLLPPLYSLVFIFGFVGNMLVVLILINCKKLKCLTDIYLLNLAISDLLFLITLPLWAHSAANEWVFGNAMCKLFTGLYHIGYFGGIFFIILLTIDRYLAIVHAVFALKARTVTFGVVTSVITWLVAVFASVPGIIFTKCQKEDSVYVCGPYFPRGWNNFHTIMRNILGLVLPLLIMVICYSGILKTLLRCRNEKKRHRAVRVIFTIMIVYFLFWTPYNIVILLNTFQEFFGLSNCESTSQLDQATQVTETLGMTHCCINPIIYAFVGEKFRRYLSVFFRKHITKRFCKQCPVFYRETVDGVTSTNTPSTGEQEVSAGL
Assay: MCP-1 Receptor Binding Assay in THP-1 Cells (125I labeled MCP-1)
Conditions: 0.5 nM 125I labeled MCP-1, 2 hours at 30° C., read-out: Inhibition of MCP-1 Binding IC50, CCR2 Binding
Procedure: Compounds of the invention were subjected to various representative biological tests. […] MCP-1 Receptor Binding Assay in THP-1 Cells
Human monocytic cell line THP-1 cells were obtained from American Type Culture Collection (Manassas, Va., USA). […] The cell density was maintained […].
1 μM cold MCP-1 was used for nonspecific binding.

Question: With `Nc1cccc(C2CCC(N3CC(NC(=O)CNC(=O)c4cccc(C(F)(F)F)c4)C3)CC2)n1` (single isomer, unassigned) [Example 22a, N-({1-[4-(6-Amino-pyridin-2-yl)-cyclohexyl]-azetidin-3-ylcarbamoyl}-methyl)-3-trifluoromethyl-benzamide] as the compound, how does the IC50 read?
Answer: Its IC50 is 25 nM.

Question: With `O=C(CNC(=O)c1cccc(C(F)(F)F)c1)NC1CN(C2CCC(c3ccc(=O)n(CCO)c3)CC2)C1` (stereo not shown) [Example 43, N-[(1-{4-[1-(2-Hydroxy-ethyl)-6-oxo-1,6-dihydro-pyridin-3-yl]-cyclohexyl}-azetidin-3-ylcarbamoyl)-methyl]-3-trifluoromethyl-benzamide] as the compound, how does the IC50 read?
Answer: Its IC50 is 330 nM.

Question: How did the IC50 turn out when `NC(=O)c1ncc(C2CCC(N3CC(NC(=O)CNC(=O)c4cccc(C(F)(F)F)c4)C3)CC2)s1` (stereo not shown) [Example 53, 5-(4-{3-[2-(3-Trifluoromethyl-benzoylamino)-acetylamino]-azetidin-1-yl}-cyclohexyl)-thiazole-2-carboxylic acid amide] was run?
Answer: Its IC50 is 1000 nM.

Question: With `N#CCn1cc(C2CCC(N3CC(NC(=O)CNC(=O)c4cccc(C(F)(F)F)c4)C3)CC2)ccc1=O` (stereo not shown) [Example 41, N-({1-[4-(1-Cyanomethyl-6-oxo-1,6-dihydro-pyridin-3-yl)-cyclohexyl]-azetidin-3-ylcarbamoyl}-methyl)-3-trifluoromethyl-benzamide] as the compound, how does the IC50 read?
Answer: Its IC50 is 130 nM.

Question: Which IC50 does the source give for `O=C(CNC(=O)c1cccc(C(F)(F)F)c1)NC1CN(C2CCC(c3cnc(C(=O)O)s3)CC2)C1` (single isomer, unassigned) [Example 52a, 5-(4-{3-[2-(3-Trifluoromethyl-benzoylamino)-acetylamino]-azetidin-1-yl}-cyclohexyl)-thiazole-2-carboxylic acid] here?
Answer: The IC50 was 2800 nM.

Question: `O=C(CNC(=O)c1cccc(C(F)(F)F)c1)NC1CN(C2CCC(c3c[nH]c4ccccc34)CC2)C1` (stereo not shown) [Example 50, N-({1-[4-(1H-Indol-3-yl)-cyclohexyl]-azetidin-3-ylcarbamoyl}-methyl)-3-trifluoromethyl-benzamide] was tested. Which IC50 did it give?
Answer: The IC50 was 920 nM.

Question: How did the IC50 turn out when `Cn1ccc(C2CCC(N3CC(NC(=O)CNC(=O)c4cccc(C(F)(F)F)c4)C3)CC2)cc1=O` (single isomer, unassigned) [Example 46a, N-({1-[4-(1-Methyl-2-oxo-1,2-dihydro-pyridin-4-yl)-cyclohexyl]-azetidin-3-ylcarbamoyl}-methyl)-3-trifluoromethyl-benzamide] was run?
Answer: Its IC50 is 550 nM.

Question: Which IC50 does the source give for `CS(=O)(=O)Nc1cccnc1C1CCC(N2CC(NC(=O)CNC(=O)c3cccc(C(F)(F)F)c3)C2)CC1` (stereo not shown) [Example 19, N-({1-[4-(3-Methanesulfonylamino-pyridin-2-yl)-cyclohexyl]-azetidin-3-ylcarbamoyl}-methyl)-3-trifluoromethyl-benzamide] here?
Answer: The IC50 was 1900 nM.

Question: Which IC50 does the source give for `Cc1cc(C2CCC(N3CC(NC(=O)CNC(=O)c4cccc(C(F)(F)F)c4)C3)CC2)cn(C)c1=O` (single isomer, unassigned) [Example 45a, N-({1-[4-(1,5-Dimethyl-6-oxo-1,6-dihydro-pyridin-3-yl)-cyclohexyl]-azetidin-3-ylcarbamoyl}-methyl)-3-trifluoromethyl-benzamide] here?
Answer: The IC50 was 61 nM.

Question: `O=C(CNC(=O)c1cccc(C(F)(F)F)c1)NC1CN(C2CCC(c3noc(N4CCCC4)n3)CC2)C1` (mixture of isomers) [Example 59, N-({1-[4-(5-Pyrrolidin-1-yl-[1,2,4]oxadiazol-3-yl)-cyclohexyl]-azetidin-3-ylcarbamoyl}-methyl)-3-trifluoromethyl-benzamide] was tested. Which IC50 did it give?
Answer: The IC50 was 400 nM.

Question: How did the IC50 turn out when `CC(=O)Nc1cccnc1C1CCC(N2CC(NC(=O)CNC(=O)c3cccc(C(F)(F)F)c3)C2)CC1` (stereo not shown) [Example 18, N-({1-[4-(3-Acetylamino-pyridin-2-yl)-cyclohexyl]-azetidin-3-ylcarbamoyl}-methyl)-3-trifluoromethyl-benzamide] was run?
Answer: The IC50 was 380 nM.

Question: Which IC50 does the source give for `COc1cc(C2CCC(N3CC(NC(=O)CNC(=O)c4cccc(C(F)(F)F)c4)C3)CC2)ccn1` (stereo not shown) [Example 7, N-({1-[4-(2-Methoxy-pyridin-4-yl)-cyclohexyl]-azetidin-3-ylcarbamoyl}-methyl)-3-trifluoromethyl-benzamide] here?
Answer: Its IC50 is 32 nM.

Question: For `CN(C)c1ccncc1C1CCC(N2CC(NC(=O)CNC(=O)c3cccc(C(F)(F)F)c3)C2)CC1` (stereo not shown) [Example 29b, N-({1-[4-(4-Dimethylamino-pyridin-3-yl)-cyclohexyl]-azetidin-3-ylcarbamoyl}-methyl)-3-trifluoromethyl-benzamide], which IC50 is on record?
Answer: The IC50 was 10000 nM.

Question: `O=C(CNC(=O)c1cccc(C(F)(F)F)c1)NC1CN(C2CCC(c3noc(C(Cl)(Cl)Cl)n3)CC2)C1` (stereo not shown) [Example 58, N-({1-[4-(5-Trichloromethyl-[1,2,4]oxadiazol-3-yl)-cyclohexyl]-azetidin-3-ylcarbamoyl}-methyl)-3-trifluoromethyl-benzamide] was tested. Which IC50 did it give?
Answer: Its IC50 is 510 nM.

Question: Which IC50 does the source give for `Nc1ccc(C2CCC(N3CC(NC(=O)CNC(=O)c4cccc(C(F)(F)F)c4)C3)CC2)cn1` (single isomer, unassigned) [Example 30a, N-({1-[4-(6-Amino-pyridin-3-yl)-cyclohexyl]-azetidin-3-ylcarbamoyl}-methyl)-3-trifluoromethyl-benzamide] here?
Answer: The IC50 was 189 nM.

Question: Which IC50 does the source give for `O=C(CNC(=O)c1cccc(C(F)(F)F)c1)NC1CN(C2CCC(c3ncccc3O)CC2)C1` (stereo not shown) [Example 3, N-({1-[4-(3-Hydroxy-pyridin-2-yl)-cyclohexyl]-azetidin-3-ylcarbamoyl}-methyl)-3-trifluoromethyl-benzamide] here?
Answer: The IC50 was 24 nM.

Question: Which IC50 does the source give for `O=C(CNC(=O)c1cccc(C(F)(F)F)c1)NC1CN(C2CCC(c3nc4c(c(=O)[nH]3)CCCC4)CC2)C1` (mixture of isomers) [Example 61, N-({1-[4-(4-Oxo-3,4,5,6,7,8-hexahydro-quinazolin-2-yl)-cyclohexyl]-azetidin-3-ylcarbamoyl}-methyl)-3-trifluoromethyl-benzamide] here?
Answer: Its IC50 is 4000 nM.

Question: Which IC50 does the source give for `O=C(CNC(=O)c1cccc(C(F)(F)F)c1)NC1CN(C2CCC(c3ccc(=O)n(CC(F)(F)F)c3)CC2)C1` (single isomer, unassigned) [Example 42a, N-[(1-{4-[6-Oxo-1-(2,2,2-trifluoro-ethyl)-1,6-dihydro-pyridin-3-yl]-cyclohexyl}-azetidin-3-ylcarbamoyl)-methyl]-3-trifluoromethyl-benzamide] here?
Answer: Its IC50 is 150 nM.

Question: With `Nc1cccc(C2CCC(N3CC(NC(=O)CNC(=O)c4cc(F)cc(C(F)(F)F)c4)C3)CC2)n1` (stereo not shown) [Example 34, N-({1-[4-(6-Amino-pyridin-2-yl)-cyclohexyl]-azetidin-3-ylcarbamoyl}-methyl)-3-fluoro-5-trifluoromethyl-benzamide] as the compound, how does the IC50 read?
Answer: Its IC50 is 120 nM.

Question: With `O=C(CNC(=O)c1cccc(C(F)(F)F)c1)NC1CN(C2CCC(c3cccnc3O)CC2)C1` (stereo not shown) [Example 10, N-({1-[4-(2-Hydroxy-pyridin-3-yl)-cyclohexyl]-azetidin-3-ylcarbamoyl}-methyl)-3-trifluoromethyl-benzamide] as the compound, how does the IC50 read?
Answer: Its IC50 is 970 nM.

Question: How did the IC50 turn out when `CNc1cccc(C2CCC(N3CC(NC(=O)CNC(=O)c4cccc(C(F)(F)F)c4)C3)CC2)n1` (single isomer, unassigned) [Example 23a, N-({1-[4-(6-Methylamino-pyridin-2-yl)-cyclohexyl]-azetidin-3-ylcarbamoyl}-methyl)-3-trifluoromethyl-benzamide] was run?
Answer: The IC50 was 72 nM.

Question: How did the IC50 turn out when `Cn1cc(C2CCC(N3CC(NC(=O)CNC(=O)c4cccc(C(F)(F)F)c4)C3)CC2)c(=O)[nH]c1=O` (stereo not shown) [Example 56, N-({1-[4-(1-Methyl-2,4-dioxo-1,2,3,4-tetrahydro-pyrimidin-5-yl)-cyclohexyl]-azetidin-3-ylcarbamoyl}-methyl)-3-trifluoromethyl-benzamide] was run?
Answer: Its IC50 is 5800 nM.
